{"source": "patent US20020168325A1", "about": "“NOS inhibitors for treatment of wrinkles” (priority 2001, published 2002)", "key": {"[1]": {"system": "back skin of mice (HR-1 hairless strain)", "test": "Wrinkle formation caused by UVB exposure, analysis of back skin replicas (Wrinkle Analyzer 3D Pro)", "assay_type": "in vivo", "source_text": "The effect of a compound on the formation or appearance of wrinkles can be evaluated qualitatively, e.g., by visual inspection, or quantitatively, e.g., by computer assisted measurements of wrinkle morphology. Preferably, wrinkle morphology is quantitatively analyzed. Examples of quantitative methods for measuring wrinkles include, but are not limited to, the optical cut technique employing a laser beam, as proposed by Hoshino (1992) Pixel 45:121, herein incorporated by reference; or methods which analyze three-dimensional skin replicas, e.g., the Shiseido Wrinkle Analyzer 3D Pro system (Takasu et al. (1996) J Soc Cosmet Chem Japan 29:394-405; Japanese Published Patent Application No. 07-113623, published May 2, 1995 (corresponds to U.S. patent application Ser. No. 08/364,346)). The SILFLO (Flexico Development Ltd.) system or a similar system can be used to take a replica of the skin. Irregularities on the surface of the skin replica, i.e., wrinkles, are analyzed, e.g., with the Shiseido Wrinkle Analyzer 3D Pro or a similar system, to provide three-dimensional shape data from the heights at points on a two-dimensional plane corresponding to the skin. According to the three-dimensional data, the length, width, depth, area, and volume of each wrinkle is calculated. According to the parameters for regular and fine wrinkles described herein, different classes of wrinkles, including the subclasses of regular and fine wrinkles, can thus be individually recognized and scored.\nTo examine the effect of L-NAME on wrinkle formation, wrinkle measurements experiments were performed on the back skin of mice (HR-1 hairless strain, female, 5 weeks of age, n=3) by taking and analyzing skin replicas.\nMice were exposed to UVB irradiation three times a week for ten weeks beginning with 0.3mW/cm^2. The total exposure was 4.662J/cm^2. 100 microliters of 1% L-NAME in 70% ethanol, or 70% ethanol as a control, was applied after each UVB irradiation. Three days after the final UVB irradiation, skin replicas of the dorsal area were taken by means of SILFLO (Flexico Development Ltd.). Replicas were evaluated by the Wrinkle Analyzer 3D Pro developed by Shiseido (essentially as described in Takasu et al. (1996) J Soc Cosmet Chem Japan 29:394-405). Wrinkdle volume and width of regular and fine wrinkles was calculated through three-dimensional data."}, "[2]": {"system": "ears of female Balb/C mice", "test": "Ear swelling response (skin irritation from topical application)", "assay_type": "in vivo", "protocol": "To examine the potential for irritation from topical application of a NOS inhibitor to the skin, measurements of ear swelling response were performed as follows: The thickness of both ears of each of three female Balb/C mice, 10 weeks of age, was measured with a thickness gage (Mitsutoyo Corp.). Ten microliters of 1% L-NAME (L-N^G-nitro-arginine methyl ester) in 70% ethanol in water was applied to each right ear, and 10 microliters of 70% ethanol in water was applied to each left ear as a control. Ear thickness was monitored over two consecutive days following administration of the solutions."}, "[3]": {"conditions": "UVB three times a week for ten weeks, 100 microliters of 1% L-NAME in 70% ethanol after each irradiation, replicas three days after final UVB"}}, "note": "“Also recorded” adds a separate entry of the source.", "data": [{"smiles": "COC(=O)[C@@H](N)CCCNC(=N)N[N+](=O)[O-]", "note": "[L-NAME, L-N^G-nitro-arginine methyl ester]", "values": [{"measurement": "Effect on fine wrinkle formation caused by UVB exposure", "setting": "[1]; 1% L-NAME in 70% ethanol on back skin of mice, compared to control mice", "result": "prevented the formation of fine wrinkles; also recorded: reduction in fine wrinkles"}, {"measurement": "Wrinkle volume, fine wrinkles", "setting": "[1]; [3]", "result": "175,295 pixels"}, {"measurement": "Wrinkle volume, regular wrinkles", "setting": "[1]; [3]", "result": "896,863 pixels"}, {"measurement": "Wrinkle volume, total (regular + fine)", "setting": "[1]; [3]", "result": "1,072,158 pixels"}, {"measurement": "Difference in ear thickness between control and treated ears", "setting": "[2]; 1% L-NAME in 70% ethanol vs 70% ethanol control, over two days", "result": "no statistically significant difference in ear thickness"}, {"measurement": "Skin inflammation / other signs of irritation (redness, flaking)", "setting": "[2]; 1% L-NAME in 70% ethanol, topical on ear", "result": "did not cause skin inflammation; also recorded: no other signs of skin irritation or inflammation"}, {"measurement": "Ear thickness DAY 0, AVE ± SD", "setting": "[2]; Day 0, right ears, 10 microliters of 1% L-NAME in 70% ethanol topical, three female Balb/C mice", "result": "26.33 ± 0.58", "unit": "× 0.01 mm"}, {"measurement": "Ear thickness DAY 1, AVE ± SD", "setting": "[2]; Day 1 after application, right ears, 10 microliters of 1% L-NAME in 70% ethanol topical", "result": "25.33 ± 0.58", "unit": "× 0.01 mm"}, {"measurement": "Ear thickness DAY 2, AVE ± SD", "setting": "[2]; Day 2 after application, right ears, 10 microliters of 1% L-NAME in 70% ethanol topical", "result": "26.33 ± 0.58", "unit": "× 0.01 mm"}]}]}
